Experimental data: patent US20220251141A1, “IMMUNOMODULATORS” (Bristol-Myers Squibb Company, priority 2019, published 2022)
Where a name gives a salt, the structure may show the parent alone. Numbered stars: 1 amine (or outer) side, 2 acyl side, 3 side chain; on linkers, the order of the positions; unused ones are H or OH. Bridge positions count the residues as written; N and C are the ends. Square brackets hold non-standard residues; d marks the D form. Peptide text beside a SMILES is read from it. * marks the point of attachment. Trp(1-CH2CO2Me) = COC(=O)Cn1cc(C[C@H](N)C(=O)O)c2ccccc21; Trp(1-CH2COOH) = N[C@@H](Cc1cn(CC(=O)O)c2ccccc12)C(=O)O; X2 = C/C(=N\C#N)NC[C@H](N[*:1])C(=O)[*:2]; Octyloxycarbonyl = CCCCCCCCOC(=O)*; Hexyloxycarbonyl = CCCCCCOC(=O)*; Hyp = O=C(O)[C@@H]1C[C@@H](O)CN1; Myristoyl = CCCCCCCCCCCCCC(=O)*; NMeNle = CCCC[C@H](NC)C(=O)O; Decanoyl = CCCCCCCCCC(=O)*; Ethoxycarbonyl = CCOC(=O)*; NMeA = CN[C@@H](C)C(=O)O; Dab = NCC[C@H](N)C(=O)O; X13 = CCCCCCCCCCOC(=O)*; Dap = NC[C@H](N)C(=O)O; Hexanoyl = CCCCCC(=O)*; Boc = CC(C)(C)OC(=O)*; Tfa = O=C(C(F)(F)F)*; X3 = O=C(OCCF)*

Target: T1, PD-1/PD-L1 (Homo sapiens, UniProt Q9NZQ7)
T1 construct: TVMV protease site linker (C); made in house; host or cells: HEK293T cells
Assay: PD-1/PD-L1 Homogenous Time-Resolved Fluorescence (HTRF) binding assay
Conditions: PD-L1-His 10 nM final, PD-1-Ig 20 nM final; inhibitors pre-incubated with PD-L1-His for 15 m
Source text: The ability of the compounds of formula (I) to bind to PD-L1 was investigated using a PD-1/PD-L1 Homogenous Time-Resolved Fluorescence (HTRF) binding assay.
The interaction of PD-1 and PD-L1 can be assessed using soluble, purified preparations of the extracellular domains of the two proteins. The PD-1 and PD-L1 protein extracellular domains were expressed as fusion proteins with detection tags, for PD-1, the tag was the Fc portion of Immunoglobulin (PD-1-Ig) and for PD-L1 it was the 6 histidine motif (PD-L1-His). All binding studies were performed in an HTRF assay buffer consisting of dPBS supplemented with 0.1% […] bovine serum albumin and 0.05% (v/v) Tween-20. For the h/PD-L1-His binding assay, inhibitors were pre-incubated with PD-L1-His (10 nM final) for 15 m in 4 μl of assay buffer, followed by addition of PD-1-Ig (20 nM final) in 1 μl of assay buffer and further incubation for 15 m. HTRF detection was achieved using europium cryptate-labeled anti-Ig (1 nM final) and allophycocyanin (APC) labeled anti-His (20 nM final). Antibodies were diluted in HTRF detection buffer and 5 μl was dispensed on top of the binding reaction. The reaction mixture was allowed to equilibrate for 30 minutes and the resulting signal (665 nm/620 nm ratio) was obtained using an EnVision fluorometer. Additional binding assays were established between the human proteins PD-1-Ig/PD-L2-His (20 & 5 nM, respectively) and CD80-His/PD-L1-Ig (100 & 10 nM, respectively).
Recombinant Proteins: Human PD-1 (25-167) with a C-terminal human Fc domain of immunoglobulin G (Ig) epitope tag [hPD-1 (25-167)-3S-IG] and human PD-L1 (18-239) with a C-terminal His epitope tag [hPD-L1(18-239)-TVMV-His] were expressed in HEK293T cells and purified sequentially by Protein A affinity chromatography and size exclusion chromatography. Human PD-L2-His and CD80-His was obtained through commercial sources.
Table 3 lists the IC50 values for representative examples of this disclosure measured in the PD-1/PD-L1 Homogenous Time-Resolved Fluorescence (HTRF) binding assay.

Compound | IC50 [µM]
CCCCCCCCCC(=O)NCC[C@@H]1NC(=O)[C@H](Cc2c[nH]c3ccccc23)NC(=O)[C@@H]2C[C@@H](O)CN2C(=O)[C@H](CC(C)C)NC(=O)[C@H](CNC(=O)CCCCCCCCC)NC(=O)[C@@H]2CCCN2C(=O)[C@H](CC(N)=O)NC(=O)[C@H](C)N(C)C(=O)[C@H](Cc2ccc(O)cc2)NC(=O)CSC[C@@H](C(=O)NCC(N)=O)NC(=O)[C@H](CC(C)C)NC(=O)[C@H](CCCC)N(C)C(=O)[C@H](CCCC)N(C)C(=O)[C@H](Cc2cn(CC(=O)O)c3ccccc23)NC1=O [Example 1003] ({CH2CO}-Y[NMeA]NP[Dap](Decanoyl)L[Hyp]W[Dab](Decanoyl)[Trp(1-CH2COOH)][NMeNle][NMeNle]LCG-NH2; thioether N-14) | 0.037
CCCCCCCCCC(=O)NCC[C@@H]1NC(=O)[C@H](Cc2c[nH]c3ccccc23)NC(=O)[C@@H]2C[C@@H](O)CN2C(=O)[C@H](CC(C)C)NC(=O)[C@H](CNC(=O)CCCCCCCCC)NC(=O)[C@@H]2CCCN2C(=O)[C@H](CC(N)=O)NC(=O)[C@H](C)N(C)C(=O)[C@H](Cc2ccc(O)cc2)NC(=O)CSC[C@@H](C(=O)NCC(N)=O)NC(=O)[C@H](CC(C)C)NC(=O)[C@H](CCCC)N(C)C(=O)[C@H](CCCC)N(C)C(=O)[C@H](Cc2cn(CC(=O)OC)c3ccccc23)NC1=O [Example 1004] ({CH2CO}-Y[NMeA]NP[Dap](Decanoyl)L[Hyp]W[Dab](Decanoyl)[Trp(1-CH2CO2Me)][NMeNle][NMeNle]LCG-NH2; thioether N-14) | > 10
CCCCCCCCCCCCCC(=O)NCC[C@@H]1NC(=O)[C@H](Cc2c[nH]c3ccccc23)NC(=O)[C@@H]2C[C@@H](O)CN2C(=O)[C@H](CC(C)C)NC(=O)[C@H](CNC(=O)CCCCCCCCCCCCC)NC(=O)[C@@H]2CCCN2C(=O)[C@H](CC(N)=O)NC(=O)[C@H](C)N(C)C(=O)[C@H](Cc2ccc(O)cc2)NC(=O)CSC[C@@H](C(=O)NCC(N)=O)NC(=O)[C@H](CC(C)C)NC(=O)[C@H](CCCC)N(C)C(=O)[C@H](CCCC)N(C)C(=O)[C@H](Cc2cn(CC(=O)OC)c3ccccc23)NC1=O [Example 1005] ({CH2CO}-Y[NMeA]NP[Dap](Myristoyl)L[Hyp]W[Dab](Myristoyl)[Trp(1-CH2CO2Me)][NMeNle][NMeNle]LCG-NH2; thioether N-14) | > 10
CCCCCC(=O)NCC[C@@H]1NC(=O)[C@H](Cc2c[nH]c3ccccc23)NC(=O)[C@@H]2C[C@@H](O)CN2C(=O)[C@H](CC(C)C)NC(=O)[C@H](CNC(=O)CCCCC)NC(=O)[C@@H]2CCCN2C(=O)[C@H](CC(N)=O)NC(=O)[C@H](C)N(C)C(=O)[C@H](Cc2ccc(O)cc2)NC(=O)CSC[C@@H](C(=O)NCC(N)=O)NC(=O)[C@H](CC(C)C)NC(=O)[C@H](CCCC)N(C)C(=O)[C@H](CCCC)N(C)C(=O)[C@H](Cc2cn(CC(=O)OC)c3ccccc23)NC1=O [Example 1006] ({CH2CO}-Y[NMeA]NP[Dap](Hexanoyl)L[Hyp]W[Dab](Hexanoyl)[Trp(1-CH2CO2Me)][NMeNle][NMeNle]LCG-NH2; thioether N-14) | 0.022
CCCC[C@H]1C(=O)N(C)[C@@H](CCCC)C(=O)N[C@@H](CC(C)C)C(=O)N[C@H](C(=O)NCC(N)=O)CSCC(=O)N[C@@H](Cc2ccc(O)cc2)C(=O)N(C)[C@@H](C)C(=O)N[C@@H](CC(N)=O)C(=O)N2CCC[C@H]2C(=O)N[C@@H](CNC(=O)C(F)(F)F)C(=O)N[C@@H](CC(C)C)C(=O)N2C[C@H](O)C[C@H]2C(=O)N[C@@H](Cc2c[nH]c3ccccc23)C(=O)N[C@@H](CCNC(=O)C(F)(F)F)C(=O)N[C@@H](Cc2cn(CC(=O)O)c3ccccc23)C(=O)N1C [Example 1007] ({CH2CO}-Y[NMeA]NP[Dap](Tfa)L[Hyp]W[Dab](Tfa)[Trp(1-CH2COOH)][NMeNle][NMeNle]LCG-NH2; thioether N-14) | 0.0033
CCCC[C@H]1C(=O)N(C)[C@@H](CCCC)C(=O)N[C@@H](CC(C)C)C(=O)N[C@H](C(=O)NCC(N)=O)CSCC(=O)N[C@@H](Cc2ccc(O)cc2)C(=O)N(C)[C@@H](C)C(=O)N[C@@H](CC(N)=O)C(=O)N2CCC[C@H]2C(=O)N[C@@H](CN/C(C)=N/C#N)C(=O)N[C@@H](CC(C)C)C(=O)N2C[C@H](O)C[C@H]2C(=O)N[C@@H](Cc2c[nH]c3ccccc23)C(=O)N[C@@H](CCN)C(=O)N[C@@H](Cc2cn(CC(=O)O)c3ccccc23)C(=O)N1C [Example 1009] ({CH2CO}-Y[NMeA]NP[X2]L[Hyp]W[Dab][Trp(1-CH2COOH)][NMeNle][NMeNle]LCG-NH2; thioether N-14) | 0.0055
CCCC[C@H]1C(=O)N(C)[C@@H](CCCC)C(=O)N[C@@H](CC(C)C)C(=O)N[C@H](C(=O)NCC(N)=O)CSCC(=O)N[C@@H](Cc2ccc(O)cc2)C(=O)N(C)[C@@H](C)C(=O)N[C@@H](CC(N)=O)C(=O)N2CCC[C@H]2C(=O)N[C@@H](CNC(=O)OCC)C(=O)N[C@@H](CC(C)C)C(=O)N2C[C@H](O)C[C@H]2C(=O)N[C@@H](Cc2c[nH]c3ccccc23)C(=O)N[C@@H](CCNC(=O)OCC)C(=O)N[C@@H](Cc2cn(CC(=O)OC)c3ccccc23)C(=O)N1C [Example 1010] ({CH2CO}-Y[NMeA]NP[Dap](Ethoxycarbonyl)L[Hyp]W[Dab](Ethoxycarbonyl)[Trp(1-CH2CO2Me)][NMeNle][NMeNle]LCG-NH2; thioether N-14) | 0.0039
CCCC[C@H]1C(=O)N(C)[C@@H](CCCC)C(=O)N[C@@H](CC(C)C)C(=O)N[C@H](C(=O)NCC(N)=O)CSCC(=O)N[C@@H](Cc2ccc(O)cc2)C(=O)N(C)[C@@H](C)C(=O)N[C@@H](CC(N)=O)C(=O)N2CCC[C@H]2C(=O)N[C@@H](CNC(=O)OCCF)C(=O)N[C@@H](CC(C)C)C(=O)N2C[C@H](O)C[C@H]2C(=O)N[C@@H](Cc2c[nH]c3ccccc23)C(=O)N[C@@H](CCNC(=O)OCCF)C(=O)N[C@@H](Cc2cn(CC(=O)OC)c3ccccc23)C(=O)N1C [Example 1012] ({CH2CO}-Y[NMeA]NP[Dap](X3)L[Hyp]W[Dab](X3)[Trp(1-CH2CO2Me)][NMeNle][NMeNle]LCG-NH2; thioether N-14) | 0.019
CCCCCCCCOC(=O)NCC[C@@H]1NC(=O)[C@H](Cc2c[nH]c3ccccc23)NC(=O)[C@@H]2C[C@@H](O)CN2C(=O)[C@H](CC(C)C)NC(=O)[C@H](CNC(=O)OCCCCCCCC)NC(=O)[C@@H]2CCCN2C(=O)[C@H](CC(N)=O)NC(=O)[C@H](C)N(C)C(=O)[C@H](Cc2ccc(O)cc2)NC(=O)CSC[C@@H](C(=O)NCC(N)=O)NC(=O)[C@H](CC(C)C)NC(=O)[C@H](CCCC)N(C)C(=O)[C@H](CCCC)N(C)C(=O)[C@H](Cc2cn(CC(=O)OC)c3ccccc23)NC1=O [Example 1013] ({CH2CO}-Y[NMeA]NP[Dap](Octyloxycarbonyl)L[Hyp]W[Dab](Octyloxycarbonyl)[Trp(1-CH2CO2Me)][NMeNle][NMeNle]LCG-NH2; thioether N-14) | 1.1
CCCC[C@H]1C(=O)N(C)[C@@H](CCCC)C(=O)N[C@@H](CC(C)C)C(=O)N[C@H](C(=O)NCC(N)=O)CSCC(=O)N[C@@H](Cc2ccc(O)cc2)C(=O)N(C)[C@@H](C)C(=O)N[C@@H](CC(N)=O)C(=O)N2CCC[C@H]2C(=O)N[C@@H](CNC(=O)OC(C)(C)C)C(=O)N[C@@H](CC(C)C)C(=O)N2C[C@H](O)C[C@H]2C(=O)N[C@@H](Cc2c[nH]c3ccccc23)C(=O)N[C@@H](CCNC(=O)OC(C)(C)C)C(=O)N[C@@H](Cc2cn(CC(=O)O)c3ccccc23)C(=O)N1C [Example 1014] ({CH2CO}-Y[NMeA]NP[Dap](Boc)L[Hyp]W[Dab](Boc)[Trp(1-CH2COOH)][NMeNle][NMeNle]LCG-NH2; thioether N-14) | 0.0061
CCCCCCCCCCOC(=O)NCC[C@@H]1NC(=O)[C@H](Cc2c[nH]c3ccccc23)NC(=O)[C@@H]2C[C@@H](O)CN2C(=O)[C@H](CC(C)C)NC(=O)[C@H](CNC(=O)OCCCCCCCCCC)NC(=O)[C@@H]2CCCN2C(=O)[C@H](CC(N)=O)NC(=O)[C@H](C)N(C)C(=O)[C@H](Cc2ccc(O)cc2)NC(=O)CSC[C@@H](C(=O)NCC(N)=O)NC(=O)[C@H](CC(C)C)NC(=O)[C@H](CCCC)N(C)C(=O)[C@H](CCCC)N(C)C(=O)[C@H](Cc2cn(CC(=O)OC)c3ccccc23)NC1=O [Example 1015] ({CH2CO}-Y[NMeA]NP[Dap](X13)L[Hyp]W[Dab](X13)[Trp(1-CH2CO2Me)][NMeNle][NMeNle]LCG-NH2; thioether N-14) | > 10
CCCCCCOC(=O)NCC[C@@H]1NC(=O)[C@H](Cc2c[nH]c3ccccc23)NC(=O)[C@@H]2C[C@@H](O)CN2C(=O)[C@H](CC(C)C)NC(=O)[C@H](CNC(=O)OCCCCCC)NC(=O)[C@@H]2CCCN2C(=O)[C@H](CC(N)=O)NC(=O)[C@H](C)N(C)C(=O)[C@H](Cc2ccc(O)cc2)NC(=O)CSC[C@@H](C(=O)NCC(N)=O)NC(=O)[C@H](CC(C)C)NC(=O)[C@H](CCCC)N(C)C(=O)[C@H](CCCC)N(C)C(=O)[C@H](Cc2cn(CC(=O)OC)c3ccccc23)NC1=O [Example 1016] ({CH2CO}-Y[NMeA]NP[Dap](Hexyloxycarbonyl)L[Hyp]W[Dab](Hexyloxycarbonyl)[Trp(1-CH2CO2Me)][NMeNle][NMeNle]LCG-NH2; thioether N-14) | 0.012
